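Following 48 hours of exposure in 96-well plates, responses at five concentrations were used to interpolate endpoints linearly. GI50: concentration for 50% inhibition of growth. TGI is the concentration that stops growth completely.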

Common to all, as to experiment: NCI tumour cell line growth inhibition, 48 h
Assay [1] deals with RPMI-8226 leukemia.
Assay [2] relates to M14 melanoma.
Assay [3] deals with K-562 leukemia.
The subject of assay [4] is SW-620 colon.
In assay [5] the test system is HL-60(TB) leukemia.
The test system of assay [6] is NCI-H23 lung.
The subject of assay [7] is NCI-H522 lung.
Assay [8] relates to SK-MEL-28 melanoma.
The test system of assay [9] is OVCAR-3 ovarian.
The test system of assay [10] is NCI/ADR-RES ovarian.

For the compound `CCOC(=O)C(=O)C=P(c1ccccc1)(c1ccccc1)c1ccccc1`, the TGI in [1], in assay [2], in [3], in assay [4], in assay [5] and in [6] was greater than 100 µM throughout. In addition, the TGI in assay [7], in [8] and in assay [9] was greater than 100 µM each time.
With `CCOC(=O)Cn1c2ccccc2c(=O)c2cc(C)c(C)c(C#N)c21`, the TGI in assay [1], in assay [4], in assay [5], in [6], in assay [8] and in assay [9] was greater than 100 µM in each case.
Take `Cc1ccc(C2(c3ccc(Cl)cc3)c3ccccc3C3=NCCN32)cc1` (centres undefined): the TGI is 28.9 µM in assay [1]; 16.2 µM in assay [2]; greater than 100 µM in assay [3]; 32.6 µM in assay [4]; 23.9 µM in [5]; 32 µM in [6]. For the same compound, the TGI came out at 24.9 µM in assay [10], 35.9 µM in assay [8] and 24.9 µM in assay [9].
As for `NNC(=O)CC(=O)Nc1cccc(Cl)c1`, the TGI in [1], in [3], in assay [4], in [5], in [6] and in assay [7] was greater than 100 µM in each case. The TGI in assay [8] and in assay [9] was greater than 100 µM each time.
On to `CC(CCC[C@H](C)CO)[C@H]1[C@@H](O)C(O)C2[C@@H]3C[C@@H](O)C4(O)C[C@@H](O)CC[C@]4(C)C3CC[C@@]21C` (some centres undefined), for which the TGI in assay [1], in assay [2], in assay [3], in assay [4], in assay [5] and in assay [6] was greater than 100 µM in each case. The TGI in [7], in assay [8] and in assay [9] was greater than 100 µM each time.
Turning to `NCCSc1cc(O)c2c(c1N)C(=O)c1ccccc1C2=O`, the TGI in assay [2] was greater than 100 µM; in assay [3], 69.1 µM; in [4], greater than 100 µM; in assay [5], 66.8 µM; in assay [6] it was greater than 100 µM; in assay [7], 39.7 µM. Besides, the TGI in [8] and in assay [9] was greater than 100 µM throughout.
For the compound `NC(N)=NS(=O)(=O)c1ccc(N/N=C2/CCOC2=O)cc1`, the TGI in assay [1], in assay [2], in assay [3], in [4], in assay [5] and in [6] was greater than 100 µM each time. Besides, the TGI in [10], in assay [8] and in [9] was greater than 100 µM each time.
As to `Nc1ccc2[nH]c(-c3cccc(C(F)(F)F)c3)cc(=O)c2c1`, the TGI in assay [1], in [2], in assay [4], in assay [6], in [7] and in assay [10] was greater than 100 µM in each case. The compound further registered a TGI in assay [8] greater than 100 µM.
With `COc1c(C)cc2c(C(C)C)c(O)c(O)c(C=O)c2c1O`, the TGI was greater than 100 µM in assay [1]; 64.4 µM in [2]; 45.4 µM in assay [3]; greater than 100 µM in assay [4]; 58.3 µM in assay [5]; 47.8 µM in assay [6]. Also, the TGI was found to be 60.4 µM in [7], 75.1 µM in assay [8] and 49.5 µM in [9].
For `Clc1cccc(-c2sc(-c3ccsc3)cc2Cc2ccsc2)c1`, the TGI in assay [1], in [2], in assay [3], in assay [4], in [5] and in assay [6] was greater than 10 µM throughout. The same compound had a TGI in [8] greater than 10 µM.
`S=C1NC2=C(COc3ccccc32)C(c2ccc(Cl)cc2)N1` (centres undefined): the TGI in [1] turned out to be 22.4 µM; in assay [2], 34.5 µM; in assay [3] it was 38.1 µM; in assay [4], 78.8 µM; in [5] it was 43.3 µM; in [6] it was 45.9 µM. Also, the TGI came out at 41.3 µM in assay [10], 46.8 µM in assay [8] and 28.7 µM in assay [9].
As for `O=C(CN(C(=O)OC12CC3CC(CC(C3)C1)C2)C(=O)OC12CC3CC(CC(C3)C1)C2)Oc1ccc([N+](=O)[O-])cc1`, the TGI in assay [2], in assay [3], in [4], in assay [6], in [7] and in assay [10] was greater than 100 µM in each case. Besides, the TGI in [8] and in [9] was greater than 100 µM throughout.
In the case of `COc1cc(OC)cc(-c2ccc(-c3ccc(C(=N)N)cn3)o2)c1`, the GI50 is 1.92 µM in [1]; 1.32 µM in assay [3]; 1.67 µM in assay [4]; 2.12 µM in assay [5]; 6.53 µM in assay [10]; 1.65 µM in assay [8]. In addition, the GI50 in [9] is 1.89 µM. Besides, the TGI in [1] came out at 4.33 µM; in assay [3], 2.98 µM; in assay [4] it was 3.25 µM; in [5] it was 4.38 µM; in assay [10], 38.5 µM; in assay [8], 3.16 µM. In addition, in [9], the TGI is 3.46 µM.
Consider `N#CCc1c(-c2ccccc2)n(S(=O)(=O)c2ccccc2)c2ccccc12`, for which the TGI in assay [1], in assay [2], in assay [3], in [4], in assay [5] and in [6] was greater than 100 µM each time. Moreover, the TGI in assay [8] and in [9] was greater than 100 µM each time.
In the case of `COC(=O)c1cc(C(=O)OC)c(CC(=O)C(=O)NC2C3CC4CC(C3)CC2C4)nc1CC(=O)C(=O)NC1C2CC3CC(C2)CC1C3` (centres undefined), the TGI in assay [1], in [2], in assay [3], in assay [4], in [5] and in assay [6] was greater than 100 µM each time. The TGI in assay [7], in [8] and in [9] was greater than 100 µM in each case.

(Values after PubChem BioAssay (NCI).)
